Blank lines part the entries; values can stand above or below the compound they belong to.
Assays:
Chenopodium album [1] = experiment: Post-emergence herbicidal activity against Chenopodium album seedlings assessed as plant growth inhibition at 75 g ai/ha measured 15 days after compound treatment under greenhouse conditions; assay type: functional; conditions: 360 h, read-out: GI
Chenopodium album [2] = experiment: Post-emergence herbicidal activity against Chenopodium album seedlings assessed as plant growth inhibition at 37.5 g ai/ha measured 15 days after compound treatment under greenhouse conditions; assay type: functional; conditions: 360 h, read-out: GI
Chenopodium album [3] = experiment: Post-emergence herbicidal activity against Chenopodium album seedlings assessed as plant growth inhibition at 150 g ai/ha measured 15 days after compound treatment under greenhouse conditions; assay type: functional; conditions: 360 h, read-out: GI
Amaranthus retroflexus [4] = experiment: Post emergence herbicidal activity against Amaranthus retroflexus seedlings assessed as plant growth inhibition at 75 g ai/ha measured 15 days after compound treatment under greenhouse conditions; assay type: functional; conditions: 360 h, read-out: GI
Amaranthus retroflexus [5] = experiment: Post emergence herbicidal activity against Amaranthus retroflexus seedlings assessed as plant growth inhibition at 37.5 g ai/ha measured 15 days after compound treatment under greenhouse conditions; assay type: functional; conditions: 360 h, read-out: GI
Amaranthus retroflexus [6] = experiment: Post emergence herbicidal activity against Amaranthus retroflexus seedlings assessed as plant growth inhibition at 150 g ai/ha measured 15 days after compound treatment under greenhouse conditions; assay type: functional; conditions: 360 h, read-out: GI
Brassica juncea [7] = experiment: Post-emergence herbicidal activity against Brassica juncea seedlings assessed as plant growth inhibition at 75 g ai/ha measured 15 days after compound treatment under greenhouse conditions; assay type: functional; conditions: 360 h, read-out: GI
Brassica juncea [8] = experiment: Post-emergence herbicidal activity against Brassica juncea seedlings assessed as plant growth inhibition at 37.5 g ai/ha measured 15 days after compound treatment under greenhouse conditions; assay type: functional; conditions: 360 h, read-out: GI
Brassica juncea [9] = experiment: Post-emergence herbicidal activity against Brassica juncea seedlings assessed as plant growth inhibition at 150 g ai/ha measured 15 days after compound treatment under greenhouse conditions; assay type: functional; conditions: 360 h, read-out: GI
Setaria faberi [10] = experiment: Post-emergence herbicidal activity against Setaria faberi (Giant Foxtail) seedlings assessed as plant growth inhibition at 75 g ai/ha measured 15 days after compound treatment under greenhouse conditions; assay type: functional; conditions: 360 h, read-out: GI
Setaria faberi [11] = experiment: Post-emergence herbicidal activity against Setaria faberi (Giant Foxtail) seedlings assessed as plant growth inhibition at 37.5 g ai/ha measured 15 days after compound treatment under greenhouse conditions; assay type: functional; conditions: 360 h, read-out: GI
Setaria faberi [12] = experiment: Post-emergence herbicidal activity against Setaria faberi (Giant Foxtail) seedlings assessed as plant growth inhibition at 150 g ai/ha measured 15 days after compound treatment under greenhouse conditions; assay type: functional; conditions: 360 h, read-out: GI
Digitaria sanguinalis [13] = experiment: Post-emergence herbicidal activity against Digitaria sanguinalis (hairy crabgrass) seedlings assessed as plant growth inhibition at 75 g ai/ha measured 15 days after compound treatment under greenhouse conditions; assay type: functional; conditions: 360 h, read-out: GI
Digitaria sanguinalis [14] = experiment: Post-emergence herbicidal activity against Digitaria sanguinalis (hairy crabgrass) seedlings assessed as plant growth inhibition at 37.5 g ai/ha measured 15 days after compound treatment under greenhouse conditions; assay type: functional; conditions: 360 h, read-out: GI
Digitaria sanguinalis [15] = experiment: Post-emergence herbicidal activity against Digitaria sanguinalis (hairy crabgrass) seedlings assessed as plant growth inhibition at 150 g ai/ha measured 15 days after compound treatment under greenhouse conditions; assay type: functional; conditions: 360 h, read-out: GI
Echinochloa crus-galli [16] = experiment: Post emergence herbicidal activity against Echinochloa crus-galli (barnyard grass) seedlings assessed as plant growth inhibition at 75 g ai/ha measured 15 days after compound treatment under greenhouse conditions; assay type: functional; conditions: 360 h, read-out: GI
Echinochloa crus-galli [17] = experiment: Post emergence herbicidal activity against Echinochloa crus-galli (barnyard grass) seedlings assessed as plant growth inhibition at 37.5 g ai/ha measured 15 days after compound treatment under greenhouse conditions; assay type: functional; conditions: 360 h, read-out: GI
Echinochloa crus-galli [18] = experiment: Post emergence herbicidal activity against Echinochloa crus-galli (barnyard grass) seedlings assessed as plant growth inhibition at 150 g ai/ha measured 15 days after compound treatment under greenhouse conditions; assay type: functional; conditions: 360 h, read-out: GI
[19] = target: T1, Protoporphyrinogen oxidase, chloroplastic (Nicotiana tabacum, UniProt O24163); experiment: Inhibition of Nicotiana tabacum (tobacco) recombinant PPO assessed as protoporphyrin IX formation at room temperature by fluorimetric assay
T1 sequence (O24163 whole entry): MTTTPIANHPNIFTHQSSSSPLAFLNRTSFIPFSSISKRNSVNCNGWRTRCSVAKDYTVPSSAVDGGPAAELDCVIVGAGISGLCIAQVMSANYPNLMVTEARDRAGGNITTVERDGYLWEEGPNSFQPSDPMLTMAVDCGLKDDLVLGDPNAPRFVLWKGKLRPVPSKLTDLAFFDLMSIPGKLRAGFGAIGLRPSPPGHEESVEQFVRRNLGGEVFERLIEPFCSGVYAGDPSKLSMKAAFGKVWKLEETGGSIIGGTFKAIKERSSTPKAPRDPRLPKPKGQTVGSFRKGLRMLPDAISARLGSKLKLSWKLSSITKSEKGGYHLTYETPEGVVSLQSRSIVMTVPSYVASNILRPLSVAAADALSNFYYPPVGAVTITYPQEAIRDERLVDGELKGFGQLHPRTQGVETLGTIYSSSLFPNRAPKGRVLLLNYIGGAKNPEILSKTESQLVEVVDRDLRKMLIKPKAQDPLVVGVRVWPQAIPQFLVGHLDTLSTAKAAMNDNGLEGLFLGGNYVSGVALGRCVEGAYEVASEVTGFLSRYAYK

- Ki [19]: 8 µM
SMILES: CCOC(=O)CSc1nc2cc(-n3nc(C)n(C(F)F)c3=O)c(Br)cc2s1
- inhibition of growth at 75 g/ha (Chenopodium album [1]): ≥ 90%
- inhibition of growth at 37.5 g/ha (Chenopodium album [2]): ≥ 90%
- inhibition of growth at 150 g/ha (Chenopodium album [3]): ≥ 90%
- inhibition of growth at 75 g/ha (Amaranthus retroflexus [4]): ≥ 90%
- inhibition of growth at 37.5 g/ha (Amaranthus retroflexus [5]): ≥ 90%
- inhibition of growth at 150 g/ha (Amaranthus retroflexus [6]): ≥ 90%
- inhibition of growth at 75 g/ha (Brassica juncea [7]): 80%
- inhibition of growth at 37.5 g/ha (Brassica juncea [8]): 80%
- inhibition of growth at 150 g/ha (Brassica juncea [9]): ≥ 90%
- inhibition of growth at 75 g/ha (Setaria faberi [10]): 60%
- inhibition of growth at 37.5 g/ha (Setaria faberi [11]): 50%
- inhibition of growth at 150 g/ha (Setaria faberi [12]): 80%
- inhibition of growth at 75 g/ha (Digitaria sanguinalis [13]): 60%
- inhibition of growth at 37.5 g/ha (Digitaria sanguinalis [14]): 50%
- inhibition of growth at 150 g/ha (Digitaria sanguinalis [15]): 80%
- inhibition of growth at 75 g/ha (Echinochloa crus-galli [16]): 60%
- inhibition of growth at 37.5 g/ha (Echinochloa crus-galli [17]): 50%
- inhibition of growth at 150 g/ha (Echinochloa crus-galli [18]): 50%

- Ki [19]: 12.8 µM
SMILES: C=CCSc1nc2cc(-n3nc(C)n(C(F)F)c3=O)c(Br)cc2s1
- inhibition of growth at 150 g/ha (Chenopodium album [3]): 50%
- inhibition of growth at 150 g/ha (Amaranthus retroflexus [6]): 60%
- inhibition of growth at 150 g/ha (Brassica juncea [9]): 50%
- inhibition of growth at 150 g/ha (Setaria faberi [12]): 60%
- inhibition of growth at 150 g/ha (Digitaria sanguinalis [15]): < 50%
- inhibition of growth at 150 g/ha (Echinochloa crus-galli [18]): < 50%

SMILES: Cc1nn(-c2cc3nc(SCC(=O)O)sc3cc2F)c(=O)n1C(F)F
- inhibition of growth at 75 g/ha (Chenopodium album [1]): 80%
- inhibition of growth at 37.5 g/ha (Chenopodium album [2]): 80%
- inhibition of growth at 150 g/ha (Chenopodium album [3]): ≥ 90%
- inhibition of growth at 75 g/ha (Amaranthus retroflexus [4]): ≥ 90%
- inhibition of growth at 37.5 g/ha (Amaranthus retroflexus [5]): ≥ 90%
- inhibition of growth at 150 g/ha (Amaranthus retroflexus [6]): ≥ 90%
- inhibition of growth at 75 g/ha (Brassica juncea [7]): 80%
- inhibition of growth at 37.5 g/ha (Brassica juncea [8]): < 50%
- inhibition of growth at 150 g/ha (Brassica juncea [9]): ≥ 90%
- inhibition of growth at 75 g/ha (Setaria faberi [10]): 50%
- inhibition of growth at 37.5 g/ha (Setaria faberi [11]): 50%
- inhibition of growth at 150 g/ha (Setaria faberi [12]): ≥ 90%
- inhibition of growth at 75 g/ha (Digitaria sanguinalis [13]): < 50%
- inhibition of growth at 37.5 g/ha (Digitaria sanguinalis [14]): < 50%
- inhibition of growth at 150 g/ha (Digitaria sanguinalis [15]): ≥ 90%
- inhibition of growth at 75 g/ha (Echinochloa crus-galli [16]): 50%
- inhibition of growth at 37.5 g/ha (Echinochloa crus-galli [17]): 50%
- inhibition of growth at 150 g/ha (Echinochloa crus-galli [18]): ≥ 90%
- Ki [19]: 1.52 µM

- Ki [19]: 13.9 µM
SMILES: CSc1nc2cc(-n3nc(C)n(C(F)F)c3=O)c(Cl)cc2s1
- inhibition of growth at 150 g/ha (Chenopodium album [3]): 50%
- inhibition of growth at 150 g/ha (Amaranthus retroflexus [6]): 50%
- inhibition of growth at 150 g/ha (Brassica juncea [9]): 60%
- inhibition of growth at 150 g/ha (Setaria faberi [12]): < 50%
- inhibition of growth at 150 g/ha (Digitaria sanguinalis [15]): 50%
- inhibition of growth at 150 g/ha (Echinochloa crus-galli [18]): < 50%

SMILES: CCCSc1nc2cc(-n3nc(C)n(C(F)F)c3=O)c(Cl)cc2s1
- inhibition of growth at 150 g/ha (Chenopodium album [3]): 50%
- inhibition of growth at 150 g/ha (Amaranthus retroflexus [6]): 60%
- inhibition of growth at 150 g/ha (Brassica juncea [9]): ≥ 90%
- inhibition of growth at 150 g/ha (Setaria faberi [12]): < 50%
- inhibition of growth at 150 g/ha (Digitaria sanguinalis [15]): < 50%
- inhibition of growth at 150 g/ha (Echinochloa crus-galli [18]): < 50%
- Ki [19]: 2.01 µM

SMILES: C=CCSc1nc2cc(-n3nc(C)n(C(F)F)c3=O)c(Cl)cc2s1
- inhibition of growth at 150 g/ha (Chenopodium album [3]): < 50%
- inhibition of growth at 150 g/ha (Amaranthus retroflexus [6]): 60%
- inhibition of growth at 150 g/ha (Brassica juncea [9]): 60%
- inhibition of growth at 150 g/ha (Setaria faberi [12]): 60%
- inhibition of growth at 150 g/ha (Digitaria sanguinalis [15]): < 50%
- inhibition of growth at 150 g/ha (Echinochloa crus-galli [18]): 60%
- Ki [19]: 3.13 µM

SMILES: CCCCSc1nc2cc(-n3nc(C)n(C(F)F)c3=O)c(Cl)cc2s1
- inhibition of growth at 150 g/ha (Chenopodium album [3]): < 50%
- inhibition of growth at 150 g/ha (Amaranthus retroflexus [6]): < 50%
- inhibition of growth at 150 g/ha (Brassica juncea [9]): 50%
- inhibition of growth at 150 g/ha (Setaria faberi [12]): < 50%
- inhibition of growth at 150 g/ha (Digitaria sanguinalis [15]): < 50%
- inhibition of growth at 150 g/ha (Echinochloa crus-galli [18]): < 50%
- Ki [19]: 2.97 µM

SMILES: COC(=O)Sc1nc2cc(-n3nc(C)n(C(F)F)c3=O)c(Cl)cc2s1
- inhibition of growth at 150 g/ha (Chenopodium album [3]): < 50%
- inhibition of growth at 150 g/ha (Amaranthus retroflexus [6]): < 50%
- inhibition of growth at 150 g/ha (Brassica juncea [9]): < 50%
- inhibition of growth at 150 g/ha (Setaria faberi [12]): < 50%
- inhibition of growth at 150 g/ha (Digitaria sanguinalis [15]): < 50%
- inhibition of growth at 150 g/ha (Echinochloa crus-galli [18]): < 50%

Source: ChEMBL document CHEMBL3046000, “Design and synthesis of 1-(benzothiazol-5-yl)-1H-1,2,4-triazol-5-ones as protoporphyrinogen oxidase inhibitors” (Bioorg Med Chem, 2013)
